Test results published in patent US10029994B2, “Isoxazole hydroxamic acid compounds as LpxC inhibitors” (priority 2014, dated 2018).

Tests used:
[1] = test system: A. B. ATCC 19606; assay: MIC, broth microdilution (CLSI); assay type: cell-based, Acinetobacter baumannii; conditions: Acinetobacter baumannii, ATCC19606; broth microdilution, 35° C., 20 hours; read-out: A. B. ATCC 19606 MIC
Procedure: (§1) Bacterial isolates were cultivated from −70° C. frozen stocks by two consecutive overnight passages at 35° C. in ambient air on 5% blood agar (Remel, Lenexa, Kans.). Quality control strain, P. aeruginosa ATCC 27853, A. baumannii ATCC19606 and E. coli ATCC 25922 are from the American Type Culture Collection (ATCC; Rockville, Md.) and PAO1 was received from Dr. K. Poole.
(§2) Minimal Inhibitory Concentrations (MICs) were determined by the broth microdilution method in accordance with Clinical and Laboratories Institute (CLSI) guidelines (CLSI M100-S25, Performance Standards for Antimicrobial Susceptibility Testing; Twenty-fifth Informational Supplement). In brief, fresh bacterial overnight cultures were resuspended in sterile saline, adjusted to a 0.5 McFarland turbidity standard and then diluted 2000-fold in cation adjusted Mueller-Hinton Broth II (MHB; Remel BBL) to yield a final inoculum of approximately 5×10^5 colony-forming units (CFU)/mL. Two-fold serial dilutions of compounds were prepared in 100% dimethyl sulfoxide (DMSO) at 100-fold the highest final assay concentration; the resulting dilution series of compounds were diluted 1:10 with sterile water. Ten μl of the drug dilution series in 10% DMSO was transferred to microtiter wells and 90 μl of bacterial suspension was inoculated into the wells. For testing the ability of compounds to potentiate the activity of known antibiotics, the assay was modified as follows; known antibiotics were added to the bacterial inoculum at 1.1-fold the final assay concentration indicated in Table A. All inoculated microdilution trays were incubated in ambient air at 35° C. for 20 hours. Following incubation, assay plates were read in a microtiter plate reader at 600 nm and visually inspected to confirm the MIC endpoint well with the OD value. The lowest concentration of the compound that prevented visible growth was recorded as the MIC. Performance of the assay was monitored by testing ciprofloxacin against the laboratory quality control strain in accordance with guidelines of the CLSI.

[2] = target: T1, P. aeruginosa LpxC (Pseudomonas aeruginosa, UniProt P47205); assay: P. aeruginosa LpxC Inhibition Assay (LC-MS/MS); assay type: biochemical; conditions: 1 nM P. aeruginosa LpxC, 30 min pre-incubation, 2 μM UDP-3-O-(R-3-hydroxydecanoyl)-GlcNAc, pH 7.5
T1 construct: made in house
T1 sequence (P47205 1-303): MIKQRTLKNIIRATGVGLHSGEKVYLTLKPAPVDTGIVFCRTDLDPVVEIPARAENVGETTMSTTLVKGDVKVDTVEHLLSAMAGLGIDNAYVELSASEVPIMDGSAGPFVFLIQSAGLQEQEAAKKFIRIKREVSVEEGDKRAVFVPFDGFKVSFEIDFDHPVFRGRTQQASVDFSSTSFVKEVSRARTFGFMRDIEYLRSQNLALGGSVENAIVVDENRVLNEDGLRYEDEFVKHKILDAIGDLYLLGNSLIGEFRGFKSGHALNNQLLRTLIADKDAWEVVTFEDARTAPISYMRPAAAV
Description: P. aeruginosa LpxC Inhibition Assay
The P. aeruginosa LpxC protein is produced according to the general method of Hyland et al (Journal of Bacteriology 1997 179, 2029-2037: Cloning, expression and purification of UDP-3-O-acyl-GlcNAc deacetylase from Pseudomonas aeruginosa: a metalloamidase of the lipid A biosynthesis pathway). The LC-MS/MS method for quantitation of LpxC product was developed using an Agilent 1200 Capillary HPLC system coupled to an Applied Biosystems MDS Sciex 4000QTRAP mass spectrometer. Both instruments are controlled using the Applied Biosystems MDS Sciex Analyst software. LpxC reaction product (UDP-3-O—(R-3-hydroxyacyl)-glucosamine) was produced by hydrolysis of LpxC substrate catalyzed by P.a. LpxC and purified using reversed phase chromatography on a Phenomenex Luna C18(2) 4.6×50 mm column. An LpxC product calibration curve was generated to evaluate the sensitivity and dynamic range of the LC-MS/MS method. Briefly, compounds are pre-incubated with 1 nM P. aeruginosa LpxC for 30 min. at room temperature. Reactions are initiated by the addition of 2 μM UDP-3-O—(R-3-hydroxydecanoyl)-GlcNAc. Reactions are conducted in a 384-well plate with a total volume of 50 μL in each well containing 50 mM Sodium phosphate pH 7.5, 0.005% Trition X-100 for 20 min at room temperature. After quenching with 1.8% HOAc (5 μL of a 20% HOAc added to each well), reaction mixtures are analyzed using the LC-MS/MS method and peak areas are transformed into product concentration using a LpxC product calibration curve. Total activity (0% inhibition control) is obtained from reactions with no inhibitors and 100% inhibition control is the background using quenched samples before reaction starts. For IC50 determinations, peak areas are converted to percent inhibition in Microsoft Excel. Percent inhibition values are plotted vs. log compound concentration using XLfit. Data is fit to the four-parameter logistic equation using the non-linear regression algorithm in XLfit to return the IC50 and hill slope values.

[3] = test system: E. C. ATCC 25922; assay: MIC, broth microdilution (CLSI); assay type: cell-based, Escherichia coli; conditions: Escherichia coli, ATCC25922, 20 h, broth microdilution, 35° C., 20 hours; read-out: E. C. ATCC 25922 MIC
Procedure: as §1, §2

[4] = test system: P. A. PAO1 NB52019; assay: MIC, broth microdilution (CLSI); assay type: cell-based, Pseudomonas aeruginosa; conditions: Pseudomonas aeruginosa, PAO1; broth microdilution, 35° C., 20 hours; read-out: P. A. PAO1 NB52019 MIC
Procedure: as §1, §2

[5] = test system: E. C. ATCC 29522; assay: MIC in the presence of sub-inhibitory rifampicin (potentiation/synergy); assay type: cell-based, Escherichia coli; conditions: +2 μg/ml rifampicin (RIF); broth microdilution, 35° C., 20 hours
Procedure: as §1, §2

[6] = test system: A. B. ATCC 19606; assay: as above; assay type: cell-based, Acinetobacter baumannii; conditions: +2 μg/ml rifampicin (RIF); broth microdilution, 35° C., 20 hours
Procedure: as §1, §2

Row | MIC [1] [µg/mL] | IC50 [2] [nM] | MIC [3] [µg/mL] | MIC [4] [µg/mL] | E. C. ATCC 29522 (+2 μg/ml RIF) MIC [5] [µg/mL] | A. B. ATCC 19606 (+2 μg/ml RIF) MIC [6] [µg/mL] | SMILES
1 | > 64 | < 1 | 0.5 | 0.25 | 0.125 | 1 | CO[C@H](CO)c1ccc(C#Cc2cc(CC[C@](C)(C(=O)NO)S(C)(=O)=O)no2)cc1 [Compound 2.6, (R)—N-hydroxy-4-(5-((4-((S)-2-hydroxy-1-methoxyethyl)phenyl)ethynyl)-isoxazol-3-yl)-2-methyl-2-(methylsulfonyl)butanamide]
2 | > 64 | 3 | 32 | 1 | 0.125 | 1 | C[C@@](CCc1cc(C#CCCF)on1)(C(=O)NO)S(C)(=O)=O [Compound 1.9]
3 | > 64 | < 1 | 2 | 0.25 | ≤0.06 | 0.125 | CCCC#Cc1cc(CC[C@](C)(C(=O)NO)S(C)(=O)=O)no1 [Compound 1.7, (R)—N-hydroxy-2-methyl-2-(methylsulfonyl)-4-(5-(pent-1-yn-1-yl)isoxazol-3-yl)butanamide]
4 | > 64 | < 1 | 1 | 1 | 0.5 | ≤0.06 | Cc1cc([C@H](O)[C@](C)(NCc2cc(C#CC3CCC3)on2)C(=O)NO)no1 [Compound 3.2, (2S,3R)-2-(((5-(cyclobutylethynyl)isoxazol-3-yl)methyl)amino)-N,3-dihydroxy-2-methyl-3-(5-methylisoxazol-3-yl)propanamide]
5 | > 64 | 2 | > 64 | 8 | 16 | ≤0.06 | CC(C)(O)CCC#Cc1cc(CC[C@](C)(C(=O)NO)S(C)(=O)=O)no1 [Compound 1.14, (R)—N-hydroxy-4-(5-(5-hydroxy-5-methylhex-1-yn-1-yl)isoxazol-3-yl)-2-methyl-2-(methylsulfonyl)butanamide]
6 | > 64 | < 1 | 8 | 0.25 | 0.25 | ≤0.06 | CC1(C#Cc2cc(CC[C@](C)(C(=O)NO)S(C)(=O)=O)no2)CC1 [Compound 1.8, (R)—N-hydroxy-2-methyl-4-(5-((1-methylcyclopropyl)ethynyl)isoxazol-3-yl)-2-(methylsulfonyl)butanamide]
7 | 32 | 3 | 16 | 16 | 2 | 1 | COCCCCC#Cc1cc(CN[C@](C)(C(=O)NO)[C@@H](O)c2cc(C)on2)no1 [Compound 3.5, (2S,3R)—N,3-dihydroxy-2-(((5-(6-methoxyhex-1-yn-1-yl)isoxazol-3-yl)methyl)amino)-2-methyl-3-(5-methylisoxazol-3-yl)propanamide]
8 | > 64 | < 1 | 8 | 0.5 | 0.25 | 0.25 | C[C@@](CCc1cc(C#CCCCF)on1)(C(=O)NO)S(C)(=O)=O [Compound 1.10, (R)-4-(5-(5-fluoropent-1-yn-1-yl)isoxazol-3-yl)-N-hydroxy-2-methyl-2-(methylsulfonyl)butanamide]
9 | > 64 | < 1 | 1 | 0.5 | ≤0.06 | 0.125 | CC(NCc1cc(C#Cc2ccccc2)on1)(C(=O)NO)C(O)c1cc(CO)on1 (stereo not drawn) [Compound 3.4, N,3-dihydroxy-3-(5-(hydroxymethyl)isoxazol-3-yl)-2-methyl-2-(((5-(phenylethynyl)isoxazol-3-yl)methyl)amino)propanamide]
10 | > 64 | < 1 | 8 | 0.5 | 0.5 | 0.5 | C[C@@](CCc1cc(/C=C(\F)C2CC2)on1)(C(=O)NO)S(C)(=O)=O [Compound 4.7, (R,Z)-4-(5-(2-cyclopropyl-2-fluorovinyl)isoxazol-3-yl)-N-hydroxy-2-methyl-2-(methylsulfonyl)butanamide]
11 | 64 | < 1 | 0.5 | 0.5 | ≤0.06 | ≤0.06 | CC(CCc1cc(C#Cc2ccccc2)on1)(C(=O)NO)S(C)(=O)=O (stereo not drawn) [Compound 2.4, N-hydroxy-2-methyl-2-(methylsulfonyl)-4-(5-(phenylethynyl)isoxazol-3-yl)butanamide]

Row | SMILES | MIC [1] [µg/mL] | IC50 [2] [nM] | MIC [3] [µg/mL] | MIC [4] [µg/mL] | E. C. ATCC 29522 (+2 μg/ml RIF) MIC [5] [µg/mL] | A. B. ATCC 19606 (+2 μg/ml RIF) MIC [6] [µg/mL]
12 | C[C@@](CCc1cc(C#CC2CC2)on1)(C(=O)NO)S(C)(=O)=O [Compound 1.1, (R)-4-(5-(cyclopropylethynyl)isoxazol-3-yl)-N-hydroxy-2-methyl-2-(methylsulfonyl)butanamide] | > 64 | 3 | 2 | 0.25 | ≤0.06 | 0.125
